Measurements published in patent US12029728B2, “Small molecules with anti-protozoan activity” (New Mexico Tech University Research Park Corporation, priority 2018, dated 2024).
Converted amounts (≈) assume the structure as drawn.

Columns and labels:
[1] = test system: T. cruzi epimastigotes; assay: T. cruzi epimastigote toxicity, visually assessed; type: cell-based, Trypanosoma cruzi; details: 48 hours at 30° C.; for killing at 100 µM: Trypanosoma cruzi, epimastigotes, read-out: T. cruzi death @ 100 μM
Experimental: A 1:20 working dilution of T. cruzi epimastigotes was prepared in LIT1029 medium from a saturated (˜4×10^6 cells/mL) culture. 100 μL of the 1:20 working dilution was plated, and the epimastigotes were incubated with a compound of the disclosure at varying concentrations for 48 hours at 30° C. Following T. cruzi epimastigote treatment with a compound of the disclosure, the toxicity of compounds towards T. cruzi epimastigotes was visually assessed.

[2] = test system: T. cruzi amastigotes and trypomastigotes; assay: Viability of tdTomato T. cruzi amastigotes and trypomastigotes, fluorescence; type: cell-based, Trypanosoma cruzi; details: 25 μM, 48 hours at 37° C.
Experimental: The viability of a mixture of T. cruzi amastigotes and trypomastigotes after exposure to 25 μM of the compounds of the disclosure was determined. 2×10^5 parasites/100 μL were plated in 96-well plates. Parasites expressing tdTomato were used to assess parasite viability using fluorescence measurements. Parasites were incubated with 25 μM of the compounds of the disclosure for 48 hours at 37° C. After the incubation period, the viability of amastigotes and trypomastigotes was assessed by measuring the fluorescence intensity at 510 nm-590 nm using a Tecan plate reader, where the presence of fluorescence indicated viable amastigotes/trypomastigotes.

[3] = test system: T. cruzi-infected ARPE cells; assay: Treatment of T. cruzi-infected ARPE cells, imaging; type: cell-based, Trypanosoma cruzi
Experimental: Four confocal dishes were prepared with 10,000 ARPE cells, which were adhered overnight at 37° C. The four dishes were ARPE control cells, non-infected but 5 μM Compound 2-treated cells, non-treated but infected cells, and infected cells treated with 5 μM Compound 2. For the infected dishes, ARPE media was removed and replaced with 2 mL of infectious amastigotes and trypomastigotes from the ARPE passaged plate. The dishes were then incubated for 2 hours at 37° C. The treated dishes were incubated with 5 μM Compound 2 for 5 days at 37° C., while untreated dishes were incubated in fresh media without Compound 2 for 5 days at 37° C. After the 5-day period, cells were washed 3 times in ARPE media and fixed with 1 mL 4% paraformaldehyde. Cells were visualized using an EVOS cell imaging system. Amastigotes appeared as small, dense, and mostly birefringent in images.
The experiment above was repeated using 1 μM Compound 2.
Four confocal dishes with 10,000 ARPE cells were prepared and adhered overnight at 37° C. The four dishes were: 1) ARPE control cells; 2) non-infected cells treated with 1 μM Compound 2; 3) untreated infected cells; and 4) T. cruzi-infected cells treated with 1 μM Compound 2. For the infected dishes, ARPE media was removed and replaced with 2 mL of infectious amastigotes and trypomastigotes expressing tdTomato (from ARPE passaged plate). The dishes were then incubated overnight for 7 days at 37° C. The untreated dishes were incubated in fresh media without Compound 2 for 7 days at 37° C. After the 7-day incubation period, cells were washed 3 times in ARPE media and fixed with 1 mL 4% paraformaldehyde. tdTomato fluorescence, which is indicative of viable T. cruzi, was then observed via fluorescence microscopy.
ARPE cells were plated in confocal dishes (20,000 cells per dish) and incubated overnight at 37° C. Cells were infected with T. cruzi by incubating cells with T. cruzi amastigotes and trypomastigotes expressing tdTomato (˜2×10^5 cells in total) for 24 hours at 37° C. Uninfected cells served as controls. Following the T. cruzi incubation period, extracellular parasites were removed, and the medium was replaced with DMEM/F12 culture media with or without 1 μM Compound 2. The cells were incubated further for 24 hours at 37° C. Cells were then treated two more times with fresh DMEM/F12 culture media with or without 1 μM Compound 2 and incubated for 24 hours at 37° C. Following fixation of cells in 4% paraformaldehyde, plates were imaged for tdTomato fluorescence, which is indicative of viable T. cruzi, such that the effects of repeated Compound 2 treatment could be compared to a single treatment with Compound 2.
ARPE cells were plated in confocal dishes (20,000 cells per dish) and incubated overnight at 37° C. Cells were infected with T. cruzi by incubating cells with T. cruzi amastigotes and trypomastigotes expressing tdTomato (˜2×10^5 cells in total) for 24 hours at 37° C. before washing dishes three times with DMEM/F12 culture media. Uninfected plates served as controls. The dishes were then treated with 2 μM Compound 2 or left untreated as a control and incubated further for 5 days at 37° C. The treated dish received a single treatment of Compound 2 on day 1. Dishes were washed twice with DMEM/F12 media and fixed in 4% paraformaldehyde before being imaged using confocal microscopy. […] The other Compound 2 dishes that were not incubated with T. cruzi a second time were used as controls. Following fixation of cells in 4% paraformaldehyde, tdTomato fluorescence of the cells was assessed using confocal microscopy.
ARPE cells were plated in confocal dishes (20,000 cells per dish) and incubated overnight at 37° C. Dishes were incubated with T. cruzi amastigotes and trypomastigotes expressing tdTomato (˜2×10^5 cells) for 48 hours at 37° C. Untreated cells served as controls. Cells were then washed 3 times with cell medium, treated with 5 μM Compound 2 or left untreated as a control and incubated further for 2 days at 37° C. […]

[4] = test system: L. major promastigotes; assay: L. major promastigote viability, propidium iodide flow cytometry; type: cell-based, Leishmania major; details: 50 μM, 48 hours at 24° C.
Experimental: 5×10^5 L. major promastigotes were treated with vehicle control (DMSO), […], 5 μM Compound 5, 50 μM Compound 2, 50 μM Compound 5, or […] for 48 hours at 24° C. Promastigote viability was then assessed via a propidium iodide flow cytometry assay. Propidium iodide is only taken up by dead cells, and the presence of fluorescence in a promastigote sample reflects compound efficacy.

[5] = test system: T. cruzi-infected VERO cells; assay: Treatment of T. cruzi-infected VERO cells, confocal microscopy; type: cell-based, Trypanosoma cruzi; details: 5 μM, 5 days
Experimental: 2×10^4 VERO cells were plated in individual confocal dishes and allowed to adhere for 16 hours at 37° C. […] The T. cruzi-infected dishes were incubated with ˜2×10^6 T. cruzi/mL for 24 hours at 37° C. to allow for internalization of parasites. T. cruzi parasites expressed tdTomato, which allowed for visualization of parasites within cells. After the 24-hour T. cruzi incubation period, extracellular parasites were removed from culture dishes. The cells were washed 3 times with cell culture media (10% fetal bovine serum; 1% penicillin/streptomycin). Designated plates were then incubated with 5 μM Compound 2 or 5 μM Compound 7 for 5 days at 37° C. Cells were then fixed in 2% paraformaldehyde and tdTomato fluorescence in cells was assessed via confocal microscopy.

[6] = test system: L. major-infected MDMs; assay: L. major-infected human MDMs, quantitative cell bioimaging; type: cell-based, Leishmania major; details: 2 μM or 20 μM
Experimental: Human MDMs were cultured on glass slides and incubated with metacyclic L. major for 24 hours to allow for internalization of parasites. After the 24-hour L. major incubation period, extracellular parasites were removed from the culture. 24 hours after the removal of extracellular parasites, infected cells were treated with vehicle control (DMSO), 5 μM MTF, 1 μM Compound 2, 5 μM Compound 2, 10 μM Compound 2, 2 μM Compound 7, or 20 μM Compound 7. Following treatment, the cells were fixed with 2% paraformaldehyde and subsequently stained with the DNA stain Hoechst 33342. The stained cover slips were transferred onto glass slides, and quantitative cell bioimaging was utilized to determine the number of amastigotes per 500 cells using a CellInsight CX5 High Content screening platform.

[7] = test system: T. cruzi epimastigotes; assay: ATP viability assay, reference drugs, epimastigotes; type: cell-based; details: Trypanosoma cruzi, 48 hours at 37° C.
Experimental: (§1) T. cruzi epimastigotes, amastigotes, or trypomastigotes were plated at 2×10^5 cells per well in a 96 well plate. Plated epimastigotes were prepared in LIT1029 medium, while amastigotes and trypomastigotes were collected after being passaged in ARPE cells. T. cruzi cells were treated with 0 μM, 0.39 μM, 0.78 μM, 1.56 μM, 3.125 μM, 6.25 μM, 12.5 μM, 25 μM, 50 μM, or 100 μM of nifurtimox for 48 hours at 37° C. After treatment with nifurtimox, T. cruzi viability was assessed via an ATP assay. An increase in RLU indicated the presence of ATP and viable cells.
as §1, with “benznidazole” for “nifurtimox”, “benznidazole,” for “nifurtimox,”, “RLUs” for “RLU”

[8] = test system: T. cruzi amastigotes; assay: ATP viability assay, reference drugs, amastigotes; type: cell-based; details: Trypanosoma cruzi, 48 hours at 37° C.
Experimental: as §1
as §1, with “benznidazole” for “nifurtimox”, “benznidazole,” for “nifurtimox,”, “RLUs” for “RLU”

[9] = test system: T. cruzi trypomastigotes; assay: ATP viability assay, reference drugs, trypomastigotes; type: cell-based; details: Trypanosoma cruzi, 48 hours at 37° C.
Experimental: as §1
as §1, with “benznidazole” for “nifurtimox”, “benznidazole,” for “nifurtimox,”, “RLUs” for “RLU”

## O=C(NO)C(c1ccccc1)c1c(-c2ccccc2)[nH]c2ccccc12 (centres unmarked) [Compound 1, N-hydroxy-2-phenyl-2-(2-phenyl-1H-indol-3-yl)acetamide]
[1]
  Concentration at which T. cruzi epimastigote death is greater than or equal to ~99%: 100 µM
  killing at 100 µM: 100%
[2]
  toxicity to T. cruzi amastigotes and trypomastigotes: most toxic
[3]; 10 μM once per day for 2 days
  number of intracellular parasites in ARPE culture: decreased the number of intracellular parasites

## Cc1[nH]c2ccccc2c1C(C(=O)NO)c1ccccc1 (centres unmarked) [Compound 3, N-hydroxy-2-(2-methyl-1H-indol-3-yl)-2-phenylacetamide]
[1]
  killing at 100 µM: 0%

## O=C(NO)C(c1ccccc1)c1c(-c2cccc3ccccc23)[nH]c2c1ccc1ccccc12 (centres unmarked) [Compound 4, N-hydroxy-2-(2-(naphthalen-1-yl)-1H-benzo[g]indol-3-yl)-2-phenylacetamide]
[1]
  killing at 100 µM: 0%

## CC(C)c1ccc(C(C(=O)NO)c2c(-c3ccc4ccccc4c3)[nH]c3ccccc23)cc1 (centres unmarked) [Compound 5, N-hydroxy-2-(4-isopropylphenyl)-2-(2-(naphthalen-2-yl)-1H-indol-3-yl)acetamide]
[4]
  efficacy on L. major promastigote survival: higher efficacy than MTF or the vehicle control

## COc1ccc(C(C(=O)NO)c2c(-c3ccc4ccccc4c3)[nH]c3ccccc23)cc1 (centres unmarked) [Compound 6, N-hydroxy-2-(4-methoxyphenyl)-2-(2-(naphthalen-2-yl)-1H-indol-3-yl)acetamide]
[1]
  killing at 100 µM: 0%

## Cn1c(-c2ccc3ccccc3c2)c(C(C(=O)NO)c2ccccc2)c2ccccc21 (centres unmarked) [Compound 7, N-hydroxy-2-(1-methyl-2-(naphthalen-2-yl)-1H-indol-3-yl)-2-phenylacetamide]
[1]
  Concentration at which T. cruzi epimastigote death is greater than or equal to ~99%: ≥100 µM
  killing at 100 µM: 100%
[2]
  toxicity to T. cruzi amastigotes and trypomastigotes: most toxic
[3]; 1 μM, 3 days
  parasitic burden: decreased parasitic burden
  protection from a recurring infection: not protected from a recurring infection
[3]; 2 μM, two days
  T. cruzi in ARPE cells (CherryTomato fluorescence): eradicated T. cruzi
[3]; 2.5 μM, 3 days
  T. cruzi infections in ARPE cells: minimal
[3]; 5 μM, 3 days
  T. cruzi in ARPE cells: eradicated
[3]; single dose of 2 μM, 2 days
  intracellular T. cruzi and re-infection: killed intracellular T. cruzi and protected the cells from re-infection
[5]
  T. cruzi infection in VERO cells: eradication of T. cruzi infection
[6]
  number of parasites per cell: decreased the number of parasites per cell

## NC(=O)C(c1ccccc1)c1c(-c2ccc3ccccc3c2)[nH]c2ccccc12 (centres unmarked) [Compound 8, 2-(2-(naphthalen-2-yl)-1H-indol-3-yl)-2-phenylacetamide]
[1]
  Concentration at which T. cruzi epimastigote death is greater than or equal to ~99%: 50 µM
  killing at 100 µM: 100%

## N#CC(c1ccccc1)c1c(-c2ccc3ccccc3c2)[nH]c2ccccc12 (centres unmarked) [Compound 9, 2-(2-(naphthalen-2-yl)-1H-indol-3-yl)-2-phenylacetonitrile]
[1]
  Concentration at which T. cruzi epimastigote death is greater than or equal to ~99%: ≥100 µM
  killing at 100 µM: 100%

## CCCCn1c(-c2ccc3ccccc3c2)c(C(C(=O)NO)c2ccccc2)c2ccccc21 (centres unmarked) [Compound 10, 2-(1-butyl-2-(naphthalen-2-yl)-1H-indol-3-yl)-N-hydroxy-2-phenylacetamide]
[1]
  Concentration at which T. cruzi epimastigote death is greater than or equal to ~99%: 25 µM
  killing at 100 µM: > 50%
[2]
  toxicity to T. cruzi amastigotes and trypomastigotes: most toxic

## CN(C)c1ccc(C(C(=O)NO)c2c(-c3ccc4ccccc4c3)[nH]c3ccccc23)cc1 (centres unmarked) [Compound 11, 2-(4-(dimethylamino)phenyl)-N-hydroxy-2-(2-(naphthalen-2-yl)-1H-indol-3-yl)acetamide]
[1]
  Concentration at which T. cruzi epimastigote death is greater than or equal to ~99%: 100 µM
  killing at 100 µM: 100%

## O=C(Cn1ccnc1[N+](=O)[O-])NCc1ccccc1 [benznidazole]
[3]; 2 μM, 2 days
  clearance of T. cruzi infection in ARPE cells: not cleared from T. cruzi infection
[7]
  MIC: > 100 µM
[8]
  MIC: 100 µM (≈ 26 µg/mL)
[9]
  MIC: > 100 µM

## CC1CS(=O)(=O)CCN1/N=C/c1ccc([N+](=O)[O-])o1 (centres unmarked) [nifurtimox]
[7]
  MIC: 25 µM (≈ 7.18 µg/mL)
[8]
  MIC: 3.12 µM (≈ 0.896 µg/mL)
[9]
  MIC: 6.25 µM (≈ 1.8 µg/mL)
